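All cell lines were grown in 96-well plates and treated with compound for 48 hours. GI50: concentration for 50% inhibition of growth. The concentration for full growth arrest is given as TGI.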
How the values were obtained:
Experiment in all cases: NCI anticancer screen, dose series, 48 h
[1] = system: SNB-19 CNS
[2] = system: K-562 leukemia
[3] = system: KM12 colon
[4] = system: M14 melanoma
[5] = system: OVCAR-3 ovarian
[6] = system: BT-549 breast
[7] = system: A549 NSCLC
[8] = system: TK-10 renal
[9] = system: A498 renal
[10] = system: NCI-H23 lung
[11] = system: CAKI-1 renal
[12] = system: OVCAR-5 ovarian
[13] = system: NCI/ADR-RES ovarian
[14] = system: HCT-116 colon
[15] = system: NCI-H226 lung
[16] = system: HCC-2998 colon
[17] = system: DU-145 prostate
[18] = system: RPMI-8226 leukemia
[19] = system: IGROV1 ovarian
[20] = system: HT29 colon
[21] = system: MDA-MB-468 breast
[22] = system: MDA-MB-435
[23] = system: NCI-H460 lung
[24] = system: OVCAR-8 ovarian
[25] = system: SW-620 colon
[26] = system: SK-MEL-28 melanoma
[27] = system: SN12C renal
[28] = system: UACC-62 melanoma
[29] = system: U251 CNS
[30] = system: HL-60(TB) leukemia
[31] = system: CCRF-CEM leukemia
[32] = system: HOP-92 NSCLC
[33] = system: HCT-15 colon
[34] = system: ACHN renal
[35] = system: SF-268 CNS
[36] = system: HOP-62 NSCLC
[37] = system: SK-MEL-5 melanoma
[38] = system: SF-295 CNS
[39] = system: MALME-3M melanoma
[40] = system: COLO 205 colon
[41] = system: MCF7 breast
[42] = system: EKVX NSCLC
[43] = system: OVCAR-4 ovarian
[44] = system: SK-OV-3 ovarian
[45] = system: UACC-257 melanoma
[46] = system: 786-0 renal
[47] = system: T-47D breast
[48] = system: MOLT-4 leukemia
[49] = system: LOX IMVI melanoma
[50] = system: SR leukemia
[51] = system: RXF 393 renal
[52] = system: PC-3 prostate
[53] = system: HS 578T breast
[54] = system: SF-539 CNS
[55] = system: NCI-H522 lung

**Q.** What does the source list for `c1n[nH]cc1-c1nc2ccc3[nH]ncc3c2c2c1CC1(CC2)COC1`?
**A.** GI50 [1]: 17.3 µM; TGI [1]: 68.1 µM; GI50 [2]: 13.7 µM; TGI [2]: > 100 µM; GI50 [3]: 22.3 µM; TGI [3]: 51.8 µM; GI50 [4]: 12.9 µM; TGI [4]: 28 µM; GI50 [5]: 13.7 µM; TGI [5]: 59.2 µM; GI50 [6]: 4.09 µM; TGI [6]: 16.6 µM; GI50 [7]: 27.8 µM; TGI [7]: > 100 µM; GI50 [8]: 15 µM; TGI [8]: 67.6 µM; GI50 [9]: 15 µM; TGI [9]: 30.9 µM; GI50 [10]: 15.1 µM; TGI [10]: 32.7 µM; GI50 [11]: 19.2 µM; TGI [11]: 86.5 µM; GI50 [12]: 25.6 µM; TGI [12]: 77.7 µM; GI50 [13]: > 100 µM; TGI [13]: > 100 µM; GI50 [14]: 6.02 µM; TGI [14]: 37.7 µM; GI50 [15]: 16 µM; TGI [15]: 37.1 µM; GI50 [16]: 15.5 µM; TGI [16]: 40.6 µM; GI50 [17]: 26.2 µM; TGI [17]: 95.5 µM; GI50 [18]: 21.3 µM; TGI [18]: 68 µM; GI50 [19]: 19.3 µM; TGI [19]: 57.3 µM; GI50 [20]: 26.3 µM; TGI [20]: > 100 µM; GI50 [21]: 3.53 µM; TGI [21]: 13 µM; GI50 [22]: 14.4 µM; TGI [22]: 32.4 µM; GI50 [23]: 17.1 µM; TGI [23]: 35.9 µM; GI50 [24]: 16.3 µM; TGI [24]: 35.5 µM; GI50 [25]: 4.98 µM; TGI [25]: 52.6 µM; GI50 [26]: 12.9 µM; TGI [26]: 27.7 µM; GI50 [27]: 13.9 µM; TGI [27]: 38 µM; GI50 [28]: 5.76 µM; TGI [28]: 18.7 µM; GI50 [29]: 17.7 µM; TGI [29]: > 100 µM; GI50 [30]: 13.6 µM; TGI [30]: 39.3 µM; GI50 [31]: 29.9 µM; TGI [31]: > 100 µM; GI50 [32]: 23.1 µM; TGI [32]: 63.1 µM; GI50 [33]: 23.2 µM; TGI [33]: > 100 µM; GI50 [34]: 16.8 µM; TGI [34]: > 100 µM; GI50 [35]: 16.2 µM; TGI [35]: 40.2 µM; GI50 [36]: 18.2 µM; TGI [36]: 47.3 µM; GI50 [37]: 16.3 µM; TGI [37]: 30.1 µM; GI50 [38]: 23.4 µM; TGI [38]: 58.4 µM; GI50 [39]: 15.7 µM; TGI [39]: 30.1 µM; GI50 [40]: 6.13 µM; TGI [40]: 21.2 µM; GI50 [41]: 20.4 µM; TGI [41]: 69.5 µM; GI50 [42]: 22.4 µM; TGI [42]: 83.6 µM; GI50 [43]: 25 µM; TGI [43]: 70.4 µM; GI50 [44]: 5.9 µM; TGI [44]: 34.3 µM; GI50 [45]: 17 µM; TGI [45]: 39 µM; GI50 [46]: 13.4 µM; TGI [46]: 32.7 µM; GI50 [47]: 12.7 µM; TGI [47]: 57.3 µM; GI50 [48]: 15.5 µM; TGI [48]: 48.2 µM; GI50 [49]: 11.3 µM; TGI [49]: 24.6 µM; GI50 [50]: 3.36 µM; TGI [50]: 16.9 µM; GI50 [51]: 4.52 µM; TGI [51]: 17.6 µM; GI50 [52]: 26.5 µM; TGI [52]: > 100 µM; GI50 [53]: 8.53 µM; TGI [53]: 39.3 µM; GI50 [54]: 12.2 µM; TGI [54]: 25.5 µM; GI50 [55]: 3.43 µM; TGI [55]: 17.1 µM

Reference: PubChem BioAssay (NCI)
